Reference: patent US20080194574A1, “Pyrazine Derivatives As Effective Compounds Against Infectious Diseases” (AXXIMA PHARMACEUTICALS AG, priority 2003, published 2008)

The molecules below were run against T1, viral kinase pUL-97 (Human cytomegalovirus, UniProt P16788) (assay: UL97 kinase assay on Immobilon plate). Settings: inhibition of UL 97 kinase activity; class by IC50 / % inhibition at 10 μM or 100 μM; read-out: Activity Class [A, B, C].
T1 construct: The pUL-97 gene was cloned into a baculovirus vector; GST (glutathione S-transferase) (N); made in house; host or cells: Sf9 insect cells, baculovirus
T1 sequence (P16788 whole entry): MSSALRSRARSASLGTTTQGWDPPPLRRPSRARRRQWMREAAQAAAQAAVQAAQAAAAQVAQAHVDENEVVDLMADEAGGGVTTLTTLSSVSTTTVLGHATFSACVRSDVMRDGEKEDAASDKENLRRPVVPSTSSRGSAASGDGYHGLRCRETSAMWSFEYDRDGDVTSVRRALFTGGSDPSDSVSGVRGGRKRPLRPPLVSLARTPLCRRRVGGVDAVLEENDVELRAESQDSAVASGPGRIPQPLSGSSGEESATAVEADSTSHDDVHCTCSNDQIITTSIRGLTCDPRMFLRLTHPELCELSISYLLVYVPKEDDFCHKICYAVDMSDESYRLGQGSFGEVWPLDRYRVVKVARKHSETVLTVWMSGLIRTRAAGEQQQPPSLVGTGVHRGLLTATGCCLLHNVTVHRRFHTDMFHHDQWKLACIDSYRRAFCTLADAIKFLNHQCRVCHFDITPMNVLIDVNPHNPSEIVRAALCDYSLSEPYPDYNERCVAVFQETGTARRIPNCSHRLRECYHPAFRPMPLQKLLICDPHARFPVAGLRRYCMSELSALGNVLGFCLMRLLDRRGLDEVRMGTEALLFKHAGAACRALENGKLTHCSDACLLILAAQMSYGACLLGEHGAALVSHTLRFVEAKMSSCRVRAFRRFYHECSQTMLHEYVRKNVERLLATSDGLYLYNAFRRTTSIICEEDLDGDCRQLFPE
Format: biochemical
Protocol: UL97 Kinase-Assay on Immobilon Plate
The effect of pyrazine derivatives of this invention was tested on the activity of the viral kinase pUL-97. This kinase is derived from human cytomegalovirus (HCMV) (M. Marschall et al., Journal of General Virology, 2001, 82, 1439-1450). The pUL-97 gene was cloned into a baculovirus vector in order to produce GST (glutathione S-transferase) fusion protein. Insect cells (Sf9) were infected and GST-UL-97 purified via glutathione affinity columns according to standard procedures.
The pUL-97 kinase reaction was performed as described (M. Marschall et al., Journal of General Virology, 2001, 82, 1439-1450). Briefly, 10 μl Assay buffer (3 μM ATP, 60 μg/ml myelin basic protein (MBP) as substrate), 1.0 μCi γ-[^33P]ATP and 10 μl Basic buffer (20 mM Tris-HCl pH7.5, 0.5 mM MnCl2, 1 mM DTT (Dithiothreitol)) were given to the test tube before adding various concentrations of pyrazine derivatives. The reaction was started by adding 0.2 μl pUL-97 kinase, purified from infected Sf9-insect cells as described above. The total volume was adjusted with Basic buffer to a final volume of 30 μl. The reaction mix was incubated for 1 hr at 30° C. For negative control, 10 μl 0.1M EDTA (Ethylene Diamine tetraacetate) was added to reaction mix before addition of pUL-97 protein kinase. The reaction was stopped by addition of 10 μl 0.1 M EDTA.
Measuring Incorporation of Radioactivity:
The Immobilon plate (Millipore) was rinsed with 50 μl methanol/well. Following addition of 100 μl 0.1 M EDTA, 20 μl of each kinase reaction mix was added to one well of the Immobilon plate. Each well was washed 4× with 250 μl 0.75% phosphoric acid and 1× with 50 μl methanol. After addition of 50 μl scintillation cocktail (Roth, Germany) per well incorporation of radioactivity was measured using a Betareader (Wallac) and enzymatic activity calculated.
`CCOc1ccc(-c2cncc(N3CCN(c4ccc(F)cc4)CC3)n2)cc1` [compound 271, 6′-(4-Ethoxy-phenyl)-4-(4-fluoro-phenyl)-3,4,5,6-tetrahydro-2H-[1,2′]bipyrazinyl] gave an IC50 of 10 to 100 µM.
Molecule `CC(=O)c1ccccc1-c1cncc(N2CCN(c3ccncc3)CC2)n1` [compound 218, 1-[2-(4-Pyridin-4-yl-3,4,5,6-tetrahydro-2H-[1,2′]bipyrazinyl-6′-yl)-phenyl]-ethanone] has an IC50 of 10 to 100 µM.
`COc1ccc(-c2cncc(N3CCN(c4ccc(C(F)(F)F)cc4)CC3)n2)cc1OC` [compound 310, 6′-(3,4-Dimethoxy-phenyl)-4-(4-trifluoromethyl-phenyl)-3,4,5,6-tetrahydro-2H-[1,2′]bipyrazinyl] showed an IC50 of 10 to 100 µM.
`Cc1ccc(N2CCN(c3cncc(-c4ccc(C(F)(F)F)cc4)n3)CC2)c(C)c1` [compound 354, 4-(2,4-Dimethyl-phenyl)-6′-(4-trifluoromethyl-phenyl)-3,4,5,6-tetrahydro-2H-[1,2′]bipyrazinyl] was tested, and the IC50 was 10 to 100 µM.
`COc1ccc(N2CCN(c3cncc(-c4ccccc4CO)n3)CC2)cc1OC` [compound 264, {2-[4-(3,4-Dimethoxy-phenyl)-3,4,5,6-tetrahydro-2H-[1,2′]bipyrazinyl-6′-yl]-phenyl}-methanol] was tested, and the IC50 was 10 to 100 µM.
In the case of `COc1ccc(-c2cncc(N3CCC(c4ccccc4)CC3)n2)cc1OC` [compound 360, 2-(3,4-Dimethoxy-phenyl)-6-(4-Phenyl-piperidin-1-yl)-pyrazine], the IC50 is reported as 1 to 10 µM.
`c1ccc(N2CCN(c3cncc(-c4csc5ccccc45)n3)CC2)cc1` [compound 247, 6′-Benzo[b]thiophen-3-yl-4-phenyl-3,4,5,6-tetrahydro-2H-[1,2′]bipyrazinyl] was tested, and the IC50 was 1 to 10 µM.
`Cc1cc(C)cc(-c2cncc(N3CCN(c4cccc(C)c4C)CC3)n2)c1` [compound 338, 4-(2,3-Dimethyl-phenyl)-6′-(3,5-dimethyl-phenyl)-3,4,5,6-tetrahydro-2H-[1,2′]bipyrazinyl] was tested, and the IC50 was 10 to 100 µM.
With `Clc1ccc(N2CCN(c3cncc(-c4csc5ccccc45)n3)CC2)cc1` [compound 326, 6′-Benzo[b]thiophen-3-yl-4-(4-chloro-phenyl)-3,4,5,6-tetrahydro-2H-[1,2′]bipyrazinyl] the IC50 was 1 to 10 µM.
`CC(=O)c1ccc(N2CCN(c3cncc(-c4ccc(C(C)(C)C)cc4)n3)CC2)cc1` [compound 204, 1-{4-[6′-(4-tert-Butyl-phenyl)-2,3,5,6-tetrahydro-[1,2′]bipyrazinyl-4-yl]-phenyl}-ethanone] showed an IC50 of 10 to 100 µM.
In the case of `Cc1cccc(-c2cncc(N3CCN(c4ccc(F)cc4)CC3)n2)c1` [compound 232, 4-(4-Fluoro-phenyl)-6′-m-tolyl-3,4,5,6-tetrahydro-2H-[1,2′]bipyrazinyl], the IC50 is reported as 10 to 100 µM.
Work on `COc1ccc(N2CCN(c3cncc(-c4cccc(C)c4C)n3)CC2)cc1OC` [compound 226, 4-(3,4-Dimethoxy-phenyl)-6′-(2,3-dimethyl-phenyl)-3,4,5,6-tetrahydro-2H-[1,2′]bipyrazinyl] yielded an IC50 of 10 to 100 µM.
With `CC(=O)c1ccc(-c2cncc(N3CCN(c4ccccn4)CC3)n2)cc1` [compound 308, 1-[4-(4-Pyridin-2-yl-3,4,5,6-tetrahydro-2H-[1,2′]bipyrazinyl-6′-yl)-phenyl]-ethanone] the IC50 was 1 to 10 µM.
`CC(=O)c1ccc(-c2cncc(N3CCN(c4ccc(C)cc4C)CC3)n2)s1` [compound 289, 1-{5-[4-(2,4-Dimethyl-phenyl)-3,4,5,6-tetrahydro-2H-[1,2′]bipyrazinyl-6′-yl]-thiophen-2-yl}-ethanone] showed an IC50 of 10 to 100 µM.

Same assay, conditions: inhibition of UL 97 kinase activity; class by IC50 / % inhibition at 10 or 100 μM; read-out: Activity Class [A, B, C]
For `Cc1ccc(-c2cncc(NCc3ccco3)n2)cc1C` [compound 51, [6-(3,4-Dimethyl-phenyl)-pyrazin-2-yl]-furan-2-ylmethyl-amine], the IC50 was 10 to 100 µM.
With `Cc1ccc(-c2cncc(N3CCN(c4ccccn4)CC3)n2)cc1C` [compound 50, 6′-(3,4-Dimethyl-phenyl)-4-pyridin-2-yl-3,4,5,6-tetrahydro-2H-[1,2′]bipyrazinyl] the IC50 was 1 to 10 µM.
`CC(=O)c1ccc(N2CCN(c3cncc(-c4cccc(C)c4C)n3)CC2)cc1` [compound 150] gave an IC50 of 10 to 100 µM.
`COc1ccc(-c2cncc(N3CCN(c4ccncc4)CC3)n2)cc1OC` [compound 77, 6′-(3,4-Dimethoxy-phenyl)-4-pyridin-4-yl-3,4,5,6-tetrahydro-2H-[1,2′]bipyrazinyl] gave an IC50 of under 1 µM.
Molecule `Clc1cccc(N2CCN(c3cncc(-c4ccccc4)n3)CC2)c1` [compound 97, 4-(3-Chloro-phenyl)-6′-phenyl-3,4,5,6-tetrahydro-2H-[1,2′]bipyrazinyl] has an IC50 of 1 to 10 µM.
`Clc1cccc(-c2cncc(N3CCN(c4ccccn4)CC3)n2)c1` [compound 53, 6′-(3-Chloro-phenyl)-4-pyridin-2-yl-3,4,5,6-tetrahydro-2H-[1,2′]bipyrazinyl] gave an IC50 of 1 to 10 µM.
`CSc1ccc(-c2cncc(N3CCN(c4ccc(F)cc4)CC3)n2)cc1` [compound 140, 4-(4-Fluoro-phenyl)-6′-(4-methylsulfanyl-phenyl)-3,4,5,6-tetrahydro-2H-[1,2′]bipyrazinyl] was tested, and the IC50 was 1 to 10 µM.
`CC(=O)c1ccc(N2CCN(c3cncc(-c4ccccc4C(C)=O)n3)CC2)cc1` [compound 146, 1-{2-[4-(4-Acetyl-phenyl)-3,4,5,6-tetrahydro-2H-[1,2′]bipyrazinyl-6′-yl]-phenyl}-ethanone] gave an IC50 of 10 to 100 µM.
Molecule `NC(=O)c1cccc(-c2cncc(N3CCN(c4ccncc4)CC3)n2)c1` [Comp. 71, 3-(4-Pyridin-4-yl-3,4,5,6-tetrahydro-2H-[1,2′]bipyrazinyl-6′-yl)-benzamide] has an IC50 of 1 to 10 µM.
With `c1ccc(N2CCN(c3cncc(-c4cccs4)n3)CC2)nc1` [compound 31, 4-Pyridin-2-yl-6′-thiophen-2-yl-3,4,5,6-tetrahydro-2H-[1,2′]bipyrazinyl] the IC50 was 10 to 100 µM.
Work on `CC(=O)c1ccc(N2CCN(c3cncc(-c4ccc(F)c(Cl)c4)n3)CC2)cc1` [compound 151] yielded an IC50 of 10 to 100 µM.
With `c1ccc2cc(-c3cncc(N4CCN(CCN5CCCC5)CC4)n3)ccc2c1` [compound 17, 6′-Naphthalen-2-yl-4-(2-pyrrolidin-1-yl-ethyl)-3,4,5,6-tetrahydro-2H-[1,2′]bipyrazinyl] the IC50 was under 1 µM.
`Fc1ccc(-c2cncc(N3CCN(c4cccc(Cl)c4)CC3)n2)cc1` [compound 99, 4-(3-Chloro-phenyl)-6′-(4-fluoro-phenyl)-3,4,5,6-tetrahydro-2H-[1,2′]bipyrazinyl] gave an IC50 of 1 to 10 µM.
`CC(=O)Nc1cccc(-c2cncc(N3CCN(c4cccc5[nH]ccc45)CC3)n2)c1` [compound 36, N-{3-[4-(1H-Indol-4-yl)-3,4,5,6-tetrahydro-2H-[1,2′]bipyrazinyl-6′-yl]-phenyl}-acetamide] gave an IC50 of 10 to 100 µM.
Molecule `Cc1cccc(-c2cncc(N3CCN(c4cccc(C(F)(F)F)c4)CC3)n2)c1C` [compound 156, 6′-(2,3-Dimethyl-phenyl)-4-(3-trifluoromethyl-phenyl)-3,4,5,6-tetrahydro-2H-[1,2′]bipyrazinyl] has an IC50 of 10 to 100 µM.
For `CSc1ccc(-c2cncc(N3CCN(c4ccccc4)CC3)n2)cc1` [compound 120, 6′-(4-Methylsulfanyl-phenyl)-4-phenyl-3,4,5,6-tetrahydro-2H-[1,2′]bipyrazinyl], the IC50 was 1 to 10 µM.
With `c1ccc2sc(-c3cncc(N4CCN(c5ccncc5)CC4)n3)cc2c1` [compound 69, 6′-Benzo[b]thiophen-2-yl-4-pyridin-4-yl-3,4,5,6-tetrahydro-2H-[1,2′]bipyrazinyl] the IC50 was under 1 µM.
Molecule `COc1ccc(-c2cncc(N3CCN(c4cccc(C(F)(F)F)c4)CC3)n2)cc1OC` [compound 161, 6′-(3,4-Dimethoxy-phenyl)-4-(3-trifluoromethyl-phenyl)-3,4,5,6-tetrahydro-2H-[1,2′]bipyrazinyl] has an IC50 of 10 to 100 µM.
Work on `Fc1ccc(N2CCN(c3cncc(-c4cccc5ccccc45)n3)CC2)c(F)c1` [compound 143, 4-(2,4-Dinfluoro-phenyl)-6′-naphthalen-1-yl-3,4,5,6-tetrahydro-2H-[1,2′]bipyrazinyl] yielded an IC50 of 10 to 100 µM.
With `COc1cccc(-c2cncc(N3CCN(c4ccccc4F)CC3)n2)c1` [compound 113, 4-(2-Fluoro-phenyl)-6′-(3-methoxy-phenyl)-3,4,5,6-tetrahydro-2H-[1,2′]bipyrazinyl] the IC50 was 1 to 10 µM.
`CSc1ccc(-c2cncc(N3CCN(c4ccncc4)CC3)n2)cc1` [compound 66, 6′-(4-Methylsulfanyl-phenyl)-4-pyridin-4-yl-3,4,5,6-tetrahydro-2H-[1,2′]bipyrazinyl] was tested, and the IC50 was under 1 µM.
`COc1ccc(N2CCN(c3cncc(-c4ccc(C(N)=O)cc4)n3)CC2)cc1OC` [compound 20, 4-[4-(3,4-Dimethoxyphenyl)-3,4,5,6-tetrahydro-2H-[1,2′]bipyrazinyl-6′-yl)-benzamide] showed an IC50 of under 1 µM.
